“Also recorded” adds a separate entry of the source.
Experiments:
CACNA1 A IRES pRCTF = experiment: Preliminary screening, pRCTF R-Luc/F-Luc bicistronic reporter in HEK293 cells; type: cell-based, human
PC12 cells = experiment: NGF-induced neurite outgrowth of transfected PC12 cells; type: cell-based, rat; conditions: NGF treatment

Compound: COc1ccc(C[C@H]2NC[C@H](O)[C@H]2OC(C)=O)cc1 [anisomycin]
- activity of CACNA1A IRES pRCTF (CACNA1 A IRES pRCTF): has the potential to inhibit

Compound: ω-agatoxin
- α1AWT-induced neurite outgrowth (PC12 cells; PC12 cells expressing full-length α1AWT-FLAG): could not be blocked; also recorded: did not block
- α1ACTWT-induced (enhanced) neurite outgrowth (PC12 cells; PC12 cells transfected with α1ACTWT-FLAG): no effect

Source: US10017765B2, “Inhibitors of CACNA1A/ALPHA1A subunit internal ribosomal entry site (IRES) and methods of treating spinocerebellar ataxia type 6” (THE UNIVERSITY OF CHICAGO, priority 2013, dated 2018)
